# Source: patent publication US20260356846A1, “STATIN DERIVATIVES AND METHODS OF USING THE SAME” (The General Hospital Corporation, priority 2023, published 2026)
# Like-named read-outs stand apart in the source and are kept apart here.
# Key:
# [1] = test system: STMN2 (WT STMN2-NLuc SH-SY5Y cells); assay: STMN2 nanoluciferase assay in WT SH-SY5Y cells (Table A: WT TDP-32; Table B: WT HD Luciferase); format: cell-based, human; settings: WT cell line
# Protocol: (§1) Neuroblastoma cells (ATCC) were cultured in DMEM/F12 (Gibco) supplemented with 10% fetal-bovine serum (Omega) and 1% penicillin-streptomycin (Gibco) at 37 °C with 5% CO2. For knockdown experiments, cells were transfected with SMARTpool ON-TARGETplus siRNA or control siRNA pool (D001810-10) (GE Dharmacon) at a final concentration of 50 nM, for 96 h in two doses (0, 24 h), after complexing with Lipofectamin RNAiMAX (Invitrogen) in Opti-MEM (Gibco) for 10 min.
# (§2) WT and TDP-mut (N352S) SH-SY5Y cells were edited using CRISPR-Cas9 to express Nanoluciferase at the C-terminus of both endogenous STMN2 alleles. A single guided RNA targeting STMN2 C-terminus was designed (Benchling webtool) and cloned into pSpCas9-2A-green fluorescent protein (GFP) plasmid (px458-Addgene) using the BbsI restriction site. The sequence for guided RNA targeting STMN2 was: […]. For the repair template, overlapping fragments of 800 bp STMN2 homology arms flanking Nanoluciferase (NLuc, Promega) were generated and ligated into pUC57 backbone. A 42 bp GS-linker was also included 5′ to NLuc to prevent steric hindrance of the reporter to the final STMN2 exon. Fragments were ligated using Gibson Assembly and nucleofected simultaneously with pSpCas9-2A-GFP-gRNA plasmid using the Amaxa Nucleofector (assay A-023). Forty-eight hours following electroporation, cells were collected, and GFP-positive cells sorted and single-cell seeded into 96-well plates using the SH800S Sony cell sorter. Individual clones were expanded and DNA was extracted for PCR amplification of the STMN2 Ex5 genomic locus using primers within NLuc and outside the STMN2 5′ homology arm to confirm presence of the insert. The entire STMN2 coding region and all exon-intron junctions (>500-bp length of each intronic region) were then sequenced to verify the absence of any additional DNA alteration. qPCR analysis was performed with a wild-type isogenic SH-SY5Y cell line that had undergone the mutagenesis attempt but not acquired the insertion mutation during the original screening process.
# (§3) TDP-mut STMN2-NLuc SH-SY5Y cells were used in small-molecule screening at ICCB-Longwood. 3000 cells/well were plated in white 384-well plates using a 50 ul sample volume. 24 hours after plating, compounds were added using 100 nl pin transfer. 24 hours later, 25 ul NLuc assay was added to each well according to manufacturer instructions (Promega, Cat #). Plates were shaken for 1 min prior to luminescence readings using EnVision2 machine. DMSO-only and WT STMN2-NLuc cells were included as negative and positive controls respectively on each plate, producing an average Z′score of ~0.7 across the screen. Each library plate was conducted in duplicate, and Z-scores calculated for each compound. For subsequent validation experiments, cell numbers in each well were quantified by hoescht staining at 1 μg/ml for 15 mins at 37C in black, clear bottom plates, prior to imaging at 4× using automated microscopy (ImageXpressMicro). Nuclei were then counted using a custom algorithm, and luciferase assay run as above. Luminescence results were then normalised against cell counts as RLU/cell.
# (§4) Each compound was tested in triplicate in log doses ranging 0.01 μM−10 μM. The values are represented in luminescence normalized to the number of cells in the well, wherein darker grey correlates to higher RLU per cell and higher STMN2 protein expression.
# [2] = test system: STMN2 (TDP-mut (N352S) STMN2-NLuc SH-SY5Y cells); assay: STMN2 nanoluciferase assay in TDP-43 mutant SH-SY5Y cells (Table A: mut TDP-43; Table B: mut HD Luciferase); format: cell-based, human; settings: mutant TDP-43 cell line
# Protocol: as §1, §2, §3, §4
# [3] = Homo sapiens, SH-SY5Y, Table A, read-out: EC50, WT TDP-32
# [4] = Homo sapiens, SH-SY5Y, Table B, Emax
# [5] = Homo sapiens, SH-SY5Y, Table B, read-out: EC50, WT HD Luciferase
# [6] = Homo sapiens, SH-SY5Y, Table A, read-out: EC50, mut TDP-43
# [7] = Homo sapiens, SH-SY5Y, Table B, read-out: EC50, mut HD Luciferase
"EC50 [1, 3] [nM]","EC50 [1, 5] [nM]","EC50 [2, 6] [nM]","EC50 [2, 7] [nM]","HD Luciferase (WT, Emax) ([1]; Table B, Emax)","EC50 ([1]; Table B, read-out: EC50, WT HD Luciferase) [nM]","EC50 ([2]; Table B, read-out: EC50, mut HD Luciferase) [nM]",Structure (SMILES),"maximal fold induction [1, 4]","HD Luciferase (mut, Emax) ([2]; Table B)"
100 to 500,10 to 50,100 to 500,10 to 50,,,,"Cc1nc2cc(C3CC3)c(/C=C/[C@@H](O)C[C@@H](O)CC(=O)O)c(-c3ccc(F)cc3)c2s1 [Example I-8, (3R,5S,E)-7-(5-cyclopropyl-7-(4-fluorophenyl)-2-methylbenzo[d]thiazol-6-yl)-3,5-dihydroxyhept-6-enoic acid]",1.25 to 1.5,
,10 to 50,,10 to 50,,,,"COCc1c(C2CC2)nc(C2CC2)c(/C=C/[C@@H](O)C[C@@H](O)CC(=O)O)c1-c1ccc(Cl)cc1F [II-19, (3R,5S,E)-7-(4-(4-chloro-2-fluorophenyl)-2,6-dicyclopropyl-5-(methoxymethyl)pyridin-3-yl)-3,5-dihydroxyhept-6-enoic acid]",,
,,,,** (means≥1.25 and <1.5),100 to 500,50 to 100,"Cc1cc2c(-c3ccc(F)cc3)c(/C=C/[C@@H](O)C[C@@H](O)CC(=O)O)c(C3CC3)nc2s1 [Example I-5b, (3R,5S,E)-7-(6-cyclopropyl-4-(4-fluorophenyl)-2-methylthieno[2,3-b]pyridin-5-yl)-3,5-dihydroxyhept-6-enoic acid]",,** (means≥1.25 and <1.5)
,10 to 50,,10 to 50,,,,"O=C(O)C[C@H](O)C[C@H](O)/C=C/c1c(C2CC2)nc(C2CC2)c(COC2CC2)c1-c1ccc(Cl)cc1F [II-23, (3R,5S,E)-7-(4-(4-chloro-2-fluorophenyl)-5-(cyclopropoxymethyl)-2,6-dicyclopropylpyridin-3-yl)-3,5-dihydroxyhept-6-enoic acid]",,
,≥ 500,,≥ 500,,,,"O=C(O)C[C@H](O)C[C@H](O)/C=C/c1c(C2CC2)nc2scnc2c1-c1ccc(F)cc1 [Example I-2, (3R,5S,E)-7-(5-cyclopropyl-7-(4-fluorophenyl)thiazolo[5,4-b]pyridin-6-yl)-3,5-dihydroxyhept-6-enoic acid]",1 to 1.25,* (means≥1 and <1.25)
,≥ 500,,≥ 500,,,,"Cc1csc2c(-c3ccc(F)cc3)c(/C=C/[C@@H](O)C[C@@H](O)CC(=O)N(C)C)c(C3CC3)nc12 [Example I-26, (3R,5S,E)-7-(5-cyclopropyl-7-(4-fluorophenyl)-3-methylthieno[3,2-b]pyridin-6-yl)-3,5-dihydroxy-N,N-dimethylhept-6-enamide]",1 to 1.25,* (means≥1 and <1.25)
100 to 500,,≤ 100,,,,,"COCc1c(C(C)C)nc(C(C)C)c(/C=C/[C@@H](O)C[C@@H](O)CC(=O)O)c1-c1ccc(F)cc1 [Cerivastatin, cerivastatin, reference compound]",,
≥ 10000,,≥ 10000,,,,,CC[C@H](C)C(=O)O[C@H]1C[C@H](O)C=C2C=C[C@H](C)[C@H](CC[C@@H](O)C[C@@H](O)CC(=O)O)[C@H]21 [Pravastatin],,
,10 to 50,,10 to 50,,,,"COCc1c(C2CC2)nc(C2CC2)c(/C=C/[C@@H](O)C[C@@H](O)CC(=O)O)c1-c1c(C)cccc1F [II-18, (3R,5S,E)-7-(2,6-dicyclopropyl-4-(2-fluoro-6-methylphenyl)-5-(methoxymethyl)pyridin-3-yl)-3,5-dihydroxyhept-6-enoic acid]",,
,10 to 50,,10 to 50,,,,"Cc1csc2c(-c3ccc(F)cc3Cl)c(/C=C/[C@@H](O)C[C@@H](O)CC(=O)O)c(C3CC3)nc12 [Example I-15, (3R,5S,E)-7-(7-(2-chloro-4-fluorophenyl)-5-cyclopropyl-3-methylthieno[3,2-b]pyridin-6-yl)-3,5-dihydroxyhept-6-enoic acid]",,
100 to 500,10 to 50,100 to 500,10 to 50,,,,"O=C(O)C[C@H](O)C[C@H](O)/C=C/c1c(C2CC2)nc2ccsc2c1-c1ccc(F)cc1 [Example I-4, (3R,5S,E)-7-(5-cyclopropyl-7-(4-fluorophenyl)thieno[3,2-b]pyridin-6-yl)-3,5-dihydroxyhept-6-enoic acid]",,
≥ 10000,≥ 500,5000 to 10000,≥ 500,,,,"O=C(O)C[C@H](O)C[C@H](O)/C=C/c1c(C2CC2)cc2scnc2c1-c1ccc(F)cc1 [Example I-9, (3R,5S,E)-7-(6-cyclopropyl-4-(4-fluorophenyl)benzo[d]thiazol-5-yl)-3,5-dihydroxyhept-6-enoic acid]",1 to 1.25,* (means≥1 and <1.25)
,10 to 50,,10 to 50,,,,"Cc1cc2nc(C3CC3)c(/C=C/[C@@H](O)C[C@@H](O)CC(=O)O)c(-c3ccc(F)cc3)c2s1 [Example I-6, (3R,5S,E)-7-(5-cyclopropyl-7-(4-fluorophenyl)-2-methylthieno[3,2-b]pyridin-6-yl)-3,5-dihydroxyhept-6-enoic acid]",1.25 to 1.5,
≤ 100,≤ 10,≤ 100,≤ 10,,,,"COCc1c(C2CCC2)nc(C2CC2)c(/C=C/[C@@H](O)C[C@@H](O)CC(=O)O)c1-c1ccc(F)cc1 [II-5, (3R,5S,E)-7-(6-cyclobutyl-2-cyclopropyl-4-(4-fluorophenyl)-5-(methoxymethyl)pyridin-3-yl)-3,5-dihydroxy hept-6-enoic acid]",,
500 to 1000,100 to 500,500 to 1000,100 to 500,,,,"COCc1c(C2CCC2)nc(C2CCC2)c(/C=C/[C@@H](O)C[C@@H](O)CC(=O)O)c1-c1ccc(F)cc1Cl [II-3, (3R,5S,E)-7-(4-(2-chloro-4-fluorophenyl)-2,6-dicyclobutyl-5-(methoxymethyl)pyridin-3-yl)-3,5-dihydroxyhept-6-enoic acid]",1.25 to 1.5,** (means≥1.25 and <1.5)
≥ 10000,≥ 500,5000 to 10000,≥ 500,,,,"Cc1nc2c(-c3ccc(F)cc3)c(/C=C/[C@@H](O)C[C@@H](O)CC(=O)O)c(C3CC3)nc2s1 [Example I-3, (3R,5S,E)-7-(5-cyclopropyl-7-(4-fluorophenyl)-2-methylthiazolo[5,4-b]pyridin-6-yl)-3,5-dihydroxyhept-6-enoic acid]",1 to 1.25,* (means≥1 and <1.25)
≤ 100,≤ 10,≤ 100,≤ 10,,,,"COCc1c(C2CC2)nc(C2CC2)c(/C=C/[C@@H](O)C[C@@H](O)CC(=O)O)c1-c1ccc(F)cc1Cl [II-9, (3R,5S,E)-7-(4-(2-chloro-4-fluorophenyl)-2,6-dicyclopropyl-5-(methoxymethyl)pyridin-3-yl)-3,5-dihydroxyhept-6-enoic acid]",1.5 to 1.75,
,100 to 500,,100 to 500,,,,"Cc1csc2c(-c3ccc(F)cc3)c(CC[C@H](O)C[C@@H](O)CC(=O)O)c(C3CC3)nc12 [Example I-33, (3R,5S)-7-(5-cyclopropyl-7-(4-fluorophenyl)-3-methylthieno[3,2-b]pyridin-6-yl)-3,5-dihydroxyheptanoic acid]",,** (means≥1.25 and <1.5)
,10 to 50,,10 to 50,,,,"COCc1c(C2CC2)nc(C2CC2)c(/C=C/[C@@H](O)C[C@@H](O)CC(=O)O)c1-c1cc(F)ccc1Cl [II-13, (3R,5S,E)-7-(4-(2-chloro-5-fluorophenyl)-2,6-dicyclopropyl-5-(methoxymethyl)pyridin-3-yl)-3,5-dihydroxyhept-6-enoic acid]",,
